Measurements as given in patent publication US11826351B2, “Compounds useful as kinase inhibitors” (Loxo Oncology, Inc., priority 2015, dated 2023).
Like-named read-outs stand apart in the source and are kept apart here.

Assays:
[1] = target: T1, Recombinant BTK^WT kinase (Homo sapiens, UniProt Q06187); assay: BTK WT binding affinity (LanthaScreen TR-FRET); conditions: Kinase Tracer 236, 5 h incubation
T1 construct: purchased Invitrogen
In short: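 Tracer-displacement TR-FRET: 2.5 nM recombinant BTK^WT, 2 nM Eu anti-His antibody and 15 nM Kinase Tracer 236 incubated with varying inhibitor concentrations for 5 h in Kinase Buffer A. Signal read at 340 nm excitation, 615/665 nm emission; IC50 from variable-slope log[inhibitor]–response fit.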

[2] = target: T2, Recombinant BTK^C481S kinase (Homo sapiens, UniProt Q06187, C481S); assay: BTK C481S binding affinity (LanthaScreen TR-FRET); conditions: Kinase Tracer 236, 5 h incubation
T2 construct: purchased SignalChem
In short: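 BTK C481S tracer-displacement TR-FRET: 5 nM His-tagged kinase, 2 nM Eu anti-His antibody and 30 nM Kinase Tracer 236 incubated with titrated inhibitor for 5 h in Kinase Buffer A. Read at 340 nm excitation, 615/665 nm emission; IC50 from variable-slope log[inhibitor]–response fit.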

Recombinant EGFR = target: T3, Recombinant EGFR (Homo sapiens, UniProt P00533); assay: EGFR binding affinity (LanthaScreen TR-FRET); conditions: Kinase Tracer 199, 5 h incubation
T3 construct: purchased Invitrogen
In short: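 TR-FRET binding (LanthaScreen) with recombinant EGFR; signal measured across a compound concentration range. IC50 obtained by fitting RFU against log[inhibitor] to a variable-slope model.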

[3] = test system: OCI-Ly10 human DLBCL cells; assay: OCI-Ly10 anti-proliferative activity (Resazurin); format: cell-based; conditions: OCI-Ly10 cells, 72 h compound treatment, Resazurin, read-out: Proliferation Assay OCI-Ly10-20% FBS
In short: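 OCI-Ly10 human DLBCL cells, whose growth depends on NFκB signalling, were seeded at 7.5×10^3 cells per well in 96-well plates with a range of compound concentrations and kept at 37° C for 72 h. Resazurin was then added, and after 5 h fluorescence was read at 590 nm.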

T3 sequence (P00533 25-1210): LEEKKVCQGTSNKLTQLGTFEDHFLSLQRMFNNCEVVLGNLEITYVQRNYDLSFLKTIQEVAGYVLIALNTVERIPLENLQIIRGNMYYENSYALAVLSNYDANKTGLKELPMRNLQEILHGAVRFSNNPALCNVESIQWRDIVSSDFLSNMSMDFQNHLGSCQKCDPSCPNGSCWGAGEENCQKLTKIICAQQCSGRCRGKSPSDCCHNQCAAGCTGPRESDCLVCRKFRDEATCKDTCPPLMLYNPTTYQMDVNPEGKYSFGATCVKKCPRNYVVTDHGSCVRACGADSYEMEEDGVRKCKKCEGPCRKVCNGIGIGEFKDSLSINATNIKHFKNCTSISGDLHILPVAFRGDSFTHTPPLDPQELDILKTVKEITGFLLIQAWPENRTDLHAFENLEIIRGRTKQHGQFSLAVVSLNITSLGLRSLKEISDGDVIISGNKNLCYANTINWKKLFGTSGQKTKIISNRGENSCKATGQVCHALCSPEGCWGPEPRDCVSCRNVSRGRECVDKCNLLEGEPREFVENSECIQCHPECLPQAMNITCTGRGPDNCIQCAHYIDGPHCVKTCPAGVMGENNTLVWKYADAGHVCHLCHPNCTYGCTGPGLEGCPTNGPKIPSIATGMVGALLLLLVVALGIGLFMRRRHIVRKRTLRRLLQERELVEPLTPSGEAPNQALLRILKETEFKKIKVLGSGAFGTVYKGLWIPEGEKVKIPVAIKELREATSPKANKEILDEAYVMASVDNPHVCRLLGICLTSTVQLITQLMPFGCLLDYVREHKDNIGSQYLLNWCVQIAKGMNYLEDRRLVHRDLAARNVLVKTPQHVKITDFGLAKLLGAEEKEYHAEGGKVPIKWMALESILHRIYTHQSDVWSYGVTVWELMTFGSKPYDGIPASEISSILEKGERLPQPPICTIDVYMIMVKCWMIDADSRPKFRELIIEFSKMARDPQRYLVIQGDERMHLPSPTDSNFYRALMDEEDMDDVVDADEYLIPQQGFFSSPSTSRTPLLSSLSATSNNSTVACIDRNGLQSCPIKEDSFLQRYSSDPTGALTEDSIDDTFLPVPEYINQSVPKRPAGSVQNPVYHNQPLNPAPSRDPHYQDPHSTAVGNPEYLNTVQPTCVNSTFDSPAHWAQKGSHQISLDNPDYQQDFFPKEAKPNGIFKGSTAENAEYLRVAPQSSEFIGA
T1 sequence (Q06187 whole entry): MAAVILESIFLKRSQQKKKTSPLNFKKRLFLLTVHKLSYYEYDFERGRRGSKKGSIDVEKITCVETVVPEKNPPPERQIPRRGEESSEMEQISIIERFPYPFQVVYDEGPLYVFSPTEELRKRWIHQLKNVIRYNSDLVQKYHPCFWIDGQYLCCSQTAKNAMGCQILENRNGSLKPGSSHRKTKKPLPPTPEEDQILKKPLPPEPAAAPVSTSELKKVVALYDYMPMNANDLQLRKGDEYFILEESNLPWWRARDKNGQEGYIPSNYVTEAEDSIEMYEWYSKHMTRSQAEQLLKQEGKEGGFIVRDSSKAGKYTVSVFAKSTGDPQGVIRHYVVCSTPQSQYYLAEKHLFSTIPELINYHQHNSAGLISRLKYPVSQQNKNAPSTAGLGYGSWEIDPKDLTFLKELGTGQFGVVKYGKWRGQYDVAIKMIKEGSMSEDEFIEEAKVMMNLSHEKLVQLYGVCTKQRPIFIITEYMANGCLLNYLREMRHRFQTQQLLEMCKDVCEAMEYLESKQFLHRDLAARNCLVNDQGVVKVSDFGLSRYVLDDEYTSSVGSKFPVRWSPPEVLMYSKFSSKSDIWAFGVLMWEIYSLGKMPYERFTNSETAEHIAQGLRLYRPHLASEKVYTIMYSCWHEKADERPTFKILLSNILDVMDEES
T2 sequence (Q06187 whole entry C481S): as the sequence (Q06187 whole entry) above, with C481S counted along it

Structure (SMILES) | IC50 [1] | IC50 [2] | IC50 (Recombinant EGFR) | IC50 ([3]; Homo sapiens, OCI-Ly10, 72 h) | IC50 [3]
COc1ccccc1C(=O)NCc1ccc(-c2nn(C3CCC4(CC3)COC4)c(N)c2C(N)=O)cc1 [Example 71, 5-amino-3-[4-[[(2-methoxybenzoyl)amino]methyl]phenyl]-1-(2-oxaspiro[3.5]nonan-7-yl)pyrazole-4-carboxamide] | < 10 nM | < 10 nM | 100 to 1000 nM | 10 to 100 nM | 
COc1ccccc1C(=O)NCc1ccc(-c2nn(C3CCOCC3C)c(N)c2C(N)=O)cc1 (mixture of isomers) [Example 86, 5-amino-3-[4-[[(2-methoxybenzoyl)amino]methyl]phenyl]-1-(3-methyltetrahydropyran-4-yl)pyrazole-4-carboxamide] | < 10 nM | < 10 nM | 100 to 1000 nM | 100 to 1000 nM | 
COc1ccc(F)cc1C(=O)NCc1cc(F)c(-c2nn(C3CCOCC3)c(N)c2C(N)=O)cc1F [Example 146, 5-amino-3-[2,5-difluoro-4-[[(5-fluoro-2-methoxy-benzoyl)amino]methyl]phenyl]-1-tetrahydropyran-4-yl-pyrazole-4-carboxamide] | < 10 nM | < 10 nM | > 10000 nM | 100 to 1000 nM | 
COc1ccc(F)cc1C(=O)NCc1ccc(-c2nn(C3CN(C)CC3(F)F)c(N)c2C(N)=O)cc1 (stereo not shown) [Example 199, 5-amino-1-(4,4-difluoro-1-methyl-pyrrolidin-3-yl)-3-[4-[[(5-fluoro-2-methoxy-benzoyl)amino]methyl]phenyl]pyrazole-4-carboxamide] | < 10 nM | < 10 nM | 1000 to 10000 nM | 10 to 100 nM | 
COc1ccc(F)cc1C(=O)NCc1ccc(-c2nn(C3(C(F)(F)F)CCOCC3)c(N)c2C(N)=O)cc1 [Example 190, 5-Amino-3-[4-[[(5-fluoro-2-methoxy-benzoyl)amino]methyl]phenyl]-1-[4-(trifluoromethyl)tetrahydropyran-4-yl]pyrazole-4-carboxamide] | 100 to 1000 nM | 10 to 100 nM | 1000 to 10000 nM | 1000 to 10000 nM | 
COc1ccccc1C(=O)NCc1ccc(-c2nn(C3CC(=O)c4ccccc43)c(N)c2C(N)=O)cc1 (stereo not shown) [Example 59, 5-amino-3-[4-[[(2-methoxybenzoyl)amino]methyl]phenyl]-1-(3-oxoindan-1-yl)pyrazole-4-carboxamide] | < 10 nM | < 10 nM | 1000 to 10000 nM | 10 to 100 nM | 
COc1ccccc1C(=O)NCc1ccc(-c2nn(C3CC(O)c4ccccc43)c(N)c2C(N)=O)cc1 (stereo not shown) [Example 63, 5-amino-1-(3-hydroxyindan-1-yl)-3-[4-[[(2-methoxybenzoyl)amino]methyl]phenyl]pyrazole-4-carboxamide] | < 10 nM | < 10 nM | 100 to 1000 nM | 10 to 100 nM | 
COc1ccccc1C(=O)NCc1ccc(-c2nn([C@@H]3COC[C@H]3O)c(N)c2C(N)=O)cc1 (relative stereo) [Example 94, 5-amino-1-[trans-4-hydroxytetrahydrofuran-3-yl]-3-[4-[[(2-methoxybenzoyl)amino]methyl]phenyl]pyrazole-4-carboxamide] | 10 to 100 nM | < 10 nM | 1000 to 10000 nM | 1000 to 10000 nM | 
COc1ccc(F)cc1C(=O)NCc1ccc(-c2nn(C3CCOC3)c(N)c2C(N)=O)c(F)c1F (stereo not shown) [Example 182, 5-amino-3-[2,3-difluoro-4-[[(5-fluoro-2-methoxy-benzoyl)amino]methyl]phenyl]-1-tetrahydrofuran-3-yl-pyrazole-4-carboxamide] | 10 to 100 nM | < 10 nM | 1000 to 10000 nM | 100 to 1000 nM | 
COc1ccccc1C(=O)NCc1ccc(-c2nn(CC(F)(F)F)c(N)c2C(N)=O)c(F)c1 [Example 124, 5-amino-3-[2-fluoro-4-[[(2-methoxybenzoyl)amino]methyl]phenyl]-1-(2,2,2-trifluoroethyl)pyrazole-4-carboxamide] | 10 to 100 nM | 10 to 100 nM | 1000 to 10000 nM | 100 to 1000 nM | 
COc1ccccc1C(=O)NCc1ccc(-c2nn(C3CCCOC3)c(N)c2C(N)=O)cc1F (stereo not shown) [Example 117, 5-amino-3-[3-fluoro-4-[[(2-methoxybenzoyl)amino]methyl]phenyl]-1-tetrahydropyran-3-yl-pyrazole-4-carboxamide] | < 10 nM | < 10 nM | 1000 to 10000 nM | 10 to 100 nM | 
COc1ccc(F)cc1C(=O)NCc1ccc(-c2nn(C(c3ccccc3)C(F)(F)F)c(N)c2C(N)=O)cc1 (stereo not shown) [Example 178, 5-Amino-3-[4-[[(5-fluoro-2-methoxy-benzoyl)amino]methyl]phenyl]-1-(2,2,2-trifluoro-1-phenyl-ethyl)pyrazole-4-carboxamide] | 10 to 100 nM | < 10 nM | 1000 to 10000 nM | 10 to 100 nM | 
COc1ccccc1C(=O)NCc1ccc(-c2nn(-c3ccc(F)c(F)c3)c(N)c2C(N)=O)cc1 [Example 98, 5-amino-1-(3,4-difluorophenyl)-3-[4-[[(2-methoxybenzoyl)amino]methyl]phenyl]pyrazole-4-carboxamide] | < 10 nM | < 10 nM | 1000 to 10000 nM | 100 to 1000 nM | 
COc1ccccc1C(=O)NCc1c(F)cc(-c2nn(C3CCCC3)c(N)c2C(N)=O)cc1F [Example 138, 5-amino-1-cyclopentyl-3-[3,5-difluoro-4-[[(2-methoxybenzoyl)amino]methyl]phenyl]pyrazole-4-carboxamide] | 10 to 100 nM | 10 to 100 nM | > 10000 nM | 100 to 1000 nM | 
COc1ccccc1C(=O)NCc1ccc(-c2nn(C[C@@H]3CCCNC3)c(N)c2C(N)=O)cc1 [Example 38, 5-amino-3-[4-[[(2-methoxybenzoyl)amino]methyl]phenyl]-1-[[(3R)-3-piperidyl]methyl]pyrazole-4-carboxamide] | > 10000 nM | 1000 to 10000 nM | > 10000 nM | > 10000 nM | 
COc1ccccc1C(=O)NCc1ccc(-c2nn(C3CCC(O)CC3)c(N)c2C(N)=O)cc1 (single isomer, unassigned) [Example 34b, 5-Amino-1-(4-hydroxycyclohexyl)-3-[4-[[(2-methoxybenzoyl)amino]methyl]phenyl]pyrazole-4-carboxamide] | < 10 nM | < 10 nM | 1000 to 10000 nM | 10 to 100 nM | 
CCOC(=O)C1CCCC(n2nc(-c3ccc(CNC(=O)c4ccccc4OC)cc3)c(C(N)=O)c2N)C1 (single isomer, unassigned) [Example 55, ethyl 3-[5-amino-4-carbamoyl-3-[4-[[(2-methoxybenzoyl)amino]methyl]phenyl]pyrazol-1-yl]cyclohexanecarboxylate] | < 10 nM | < 10 nM | 100 to 1000 nM |  | 10 to 100 nM
COc1ccc(F)cc1C(=O)NCc1ccc(-c2nn(C(C)C(F)(F)F)c(N)c2C(N)=O)c(F)c1F (stereo not shown) [Example 165, 5-amino-3-[2,3-difluoro-4-[[(5-fluoro-2-methoxy-benzoyl)amino]methyl]phenyl]-1-(2,2,2-trifluoro-1-methyl-ethyl)pyrazole-4-carboxamide] | 10 to 100 nM | < 10 nM | 1000 to 10000 nM | 10 to 100 nM | 
COc1ccccc1C(=O)NCc1cc(F)c(-c2nn(C3CCCC3)c(N)c2C(N)=O)c(F)c1 [Example 140, 5-amino-1-cyclopentyl-3-[2,6-difluoro-4-[[(2-methoxybenzoyl)amino]methyl]phenyl]pyrazole-4-carboxamide] | < 10 nM | < 10 nM | > 10000 nM | 100 to 1000 nM | 
